According to patent US9682995B2, “Amino-substituted isothiazoles” (BAYER PHARMA AKTIENGESELLSCHAFT, priority 2013, dated 2017):

Experiments:
Assay in all cases: Kinase Profiling (KINOMEscan)
Format in all cases: binding
[1] = molecular target: 456 kinases (of these 395 non-mutant kinases) (Homo sapiens, UniProt Q9NY57); conditions: YANK2; 10 μM
[2] = molecular target: 456 kinases (of these 395 non-mutant kinases) (Homo sapiens, UniProt Q9UQ88); conditions: CDC2L2; 10 μM
[3] = molecular target: 456 kinases (of these 395 non-mutant kinases) (Homo sapiens, UniProt P00519, M351T); conditions: ABL1(M351T)-phosphorylated; 10 μM
[4] = molecular target: 456 kinases (of these 395 non-mutant kinases) (Homo sapiens, UniProt P35590); conditions: TIE1; 10 μM
Chain of 456 kinases (of these 395 non-mutant kinases) (Homo sapiens, UniProt P35590) (P35590 22-1138 limits assumed, change not shown): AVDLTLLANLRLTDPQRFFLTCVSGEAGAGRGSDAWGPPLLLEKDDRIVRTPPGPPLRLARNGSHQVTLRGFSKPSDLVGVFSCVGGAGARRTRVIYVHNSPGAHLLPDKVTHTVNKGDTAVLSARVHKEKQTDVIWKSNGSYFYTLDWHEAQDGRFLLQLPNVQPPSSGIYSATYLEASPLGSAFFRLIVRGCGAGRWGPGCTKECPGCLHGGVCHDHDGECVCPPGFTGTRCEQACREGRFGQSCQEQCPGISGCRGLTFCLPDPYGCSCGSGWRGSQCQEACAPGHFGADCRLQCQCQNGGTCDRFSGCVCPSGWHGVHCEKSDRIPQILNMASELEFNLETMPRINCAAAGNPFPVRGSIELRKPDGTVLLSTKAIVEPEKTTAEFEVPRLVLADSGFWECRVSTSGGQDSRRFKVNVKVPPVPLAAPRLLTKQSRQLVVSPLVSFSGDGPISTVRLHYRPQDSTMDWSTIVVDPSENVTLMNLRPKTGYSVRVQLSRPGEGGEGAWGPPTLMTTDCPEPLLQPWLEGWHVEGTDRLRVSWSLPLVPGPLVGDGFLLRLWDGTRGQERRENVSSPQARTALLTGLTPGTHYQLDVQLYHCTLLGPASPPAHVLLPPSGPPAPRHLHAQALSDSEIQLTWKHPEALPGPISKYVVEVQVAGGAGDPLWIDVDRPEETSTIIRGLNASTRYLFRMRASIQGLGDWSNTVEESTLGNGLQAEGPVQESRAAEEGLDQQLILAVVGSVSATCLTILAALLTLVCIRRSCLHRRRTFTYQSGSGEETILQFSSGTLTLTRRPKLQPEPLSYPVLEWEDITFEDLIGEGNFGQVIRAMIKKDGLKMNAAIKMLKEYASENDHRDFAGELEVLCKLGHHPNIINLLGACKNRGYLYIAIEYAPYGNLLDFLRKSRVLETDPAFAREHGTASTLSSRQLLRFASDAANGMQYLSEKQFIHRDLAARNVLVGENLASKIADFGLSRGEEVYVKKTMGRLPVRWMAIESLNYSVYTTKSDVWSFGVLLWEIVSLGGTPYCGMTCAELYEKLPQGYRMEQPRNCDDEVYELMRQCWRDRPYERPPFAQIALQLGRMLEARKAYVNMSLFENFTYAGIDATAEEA

[5] = molecular target: 456 kinases (of these 395 non-mutant kinases) (Homo sapiens, UniProt Q6ZWH5); conditions: NEK10; 10 μM
[6] = molecular target: 456 kinases (of these 395 non-mutant kinases) (Homo sapiens, UniProt P07949, V804L); conditions: RET(V804L); 10 μM
Chain of 456 kinases (of these 395 non-mutant kinases) (Homo sapiens, UniProt P07949, V804L) (P07949 29-1114 V804L limits assumed): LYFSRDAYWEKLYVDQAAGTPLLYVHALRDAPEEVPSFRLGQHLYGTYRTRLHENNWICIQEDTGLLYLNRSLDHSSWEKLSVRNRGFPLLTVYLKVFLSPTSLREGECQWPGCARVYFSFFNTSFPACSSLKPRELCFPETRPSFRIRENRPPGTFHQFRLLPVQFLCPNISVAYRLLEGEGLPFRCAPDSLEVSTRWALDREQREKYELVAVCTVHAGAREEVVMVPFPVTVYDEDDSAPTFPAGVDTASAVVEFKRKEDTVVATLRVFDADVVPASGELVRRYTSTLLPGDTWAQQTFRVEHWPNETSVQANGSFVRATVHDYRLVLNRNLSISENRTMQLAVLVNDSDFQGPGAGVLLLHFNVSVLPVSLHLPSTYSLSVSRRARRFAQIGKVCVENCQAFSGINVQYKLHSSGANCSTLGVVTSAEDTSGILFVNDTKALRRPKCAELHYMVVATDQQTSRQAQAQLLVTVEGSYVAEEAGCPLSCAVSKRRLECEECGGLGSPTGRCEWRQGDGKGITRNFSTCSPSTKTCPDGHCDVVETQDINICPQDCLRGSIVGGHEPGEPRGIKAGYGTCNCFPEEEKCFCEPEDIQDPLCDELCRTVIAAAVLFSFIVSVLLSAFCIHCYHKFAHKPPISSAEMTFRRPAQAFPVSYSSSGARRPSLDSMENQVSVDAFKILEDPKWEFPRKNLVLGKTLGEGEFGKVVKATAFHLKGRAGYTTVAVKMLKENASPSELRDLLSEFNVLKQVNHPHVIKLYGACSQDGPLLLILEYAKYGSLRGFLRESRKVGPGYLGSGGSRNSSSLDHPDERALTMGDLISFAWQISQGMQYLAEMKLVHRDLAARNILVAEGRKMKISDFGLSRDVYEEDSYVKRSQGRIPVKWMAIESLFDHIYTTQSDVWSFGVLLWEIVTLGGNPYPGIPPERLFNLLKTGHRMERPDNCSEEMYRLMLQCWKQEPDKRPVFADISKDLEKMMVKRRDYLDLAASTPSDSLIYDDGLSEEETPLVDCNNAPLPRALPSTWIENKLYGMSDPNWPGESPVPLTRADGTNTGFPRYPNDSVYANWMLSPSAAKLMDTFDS

[7] = molecular target: 456 kinases (of these 395 non-mutant kinases) (Homo sapiens, UniProt Q00536); conditions: PCTK1; 10 μM
[8] = molecular target: 456 kinases (of these 395 non-mutant kinases) (Homo sapiens, UniProt P24723); conditions: PRKCH; 10 μM
[9] = molecular target: 456 kinases (of these 395 non-mutant kinases) (Homo sapiens, UniProt Q9UHD2); conditions: TBK1; 10 μM
[10] = molecular target: 456 kinases (of these 395 non-mutant kinases) (Homo sapiens, UniProt O14578); conditions: CIT; 10 μM
[11] = molecular target: 456 kinases (of these 395 non-mutant kinases) (Homo sapiens, UniProt P54760); conditions: EPHB4; 10 μM
Chain of 456 kinases (of these 395 non-mutant kinases) (Homo sapiens, UniProt P54760) (P54760 16-987 limits assumed, change not shown): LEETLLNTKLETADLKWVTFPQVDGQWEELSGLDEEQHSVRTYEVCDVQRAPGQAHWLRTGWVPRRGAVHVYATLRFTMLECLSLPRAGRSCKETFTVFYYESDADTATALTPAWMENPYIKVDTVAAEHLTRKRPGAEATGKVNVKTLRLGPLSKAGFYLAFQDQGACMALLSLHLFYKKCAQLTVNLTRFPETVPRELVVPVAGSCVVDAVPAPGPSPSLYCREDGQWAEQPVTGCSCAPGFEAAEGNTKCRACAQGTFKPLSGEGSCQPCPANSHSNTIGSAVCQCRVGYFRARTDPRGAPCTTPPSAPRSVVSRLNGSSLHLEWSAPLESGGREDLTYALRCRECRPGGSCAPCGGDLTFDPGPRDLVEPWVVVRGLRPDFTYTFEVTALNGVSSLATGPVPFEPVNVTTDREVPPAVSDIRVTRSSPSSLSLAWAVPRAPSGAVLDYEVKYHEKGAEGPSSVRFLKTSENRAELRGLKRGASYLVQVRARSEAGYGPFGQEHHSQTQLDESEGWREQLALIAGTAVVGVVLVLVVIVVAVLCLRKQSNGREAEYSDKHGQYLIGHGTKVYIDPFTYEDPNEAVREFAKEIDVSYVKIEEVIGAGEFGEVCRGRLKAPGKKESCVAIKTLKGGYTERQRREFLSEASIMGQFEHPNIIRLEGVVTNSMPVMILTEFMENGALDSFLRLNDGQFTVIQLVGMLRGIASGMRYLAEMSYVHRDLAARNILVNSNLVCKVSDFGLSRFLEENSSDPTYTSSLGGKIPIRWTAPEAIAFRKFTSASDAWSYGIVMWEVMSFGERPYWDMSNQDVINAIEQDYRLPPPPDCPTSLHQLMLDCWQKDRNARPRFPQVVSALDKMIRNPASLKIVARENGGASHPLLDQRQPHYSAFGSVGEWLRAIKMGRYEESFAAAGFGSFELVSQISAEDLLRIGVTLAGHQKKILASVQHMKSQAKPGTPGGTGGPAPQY

[12] = molecular target: 456 kinases (of these 395 non-mutant kinases) (Homo sapiens, UniProt P08581); conditions: MET; 10 μM
[13] = molecular target: 456 kinases (of these 395 non-mutant kinases) (Homo sapiens, UniProt Q13464); conditions: ROCK1; 10 μM
[14] = molecular target: 456 kinases (of these 395 non-mutant kinases) (Homo sapiens, UniProt P43405); conditions: SYK; 10 μM
[15] = molecular target: 456 kinases (of these 395 non-mutant kinases) (Homo sapiens, UniProt Q96PY6); conditions: NEK1; 10 μM
[16] = molecular target: 456 kinases (of these 395 non-mutant kinases) (Homo sapiens, UniProt P19784); conditions: CSNK2A2; 10 μM
[17] = molecular target: 456 kinases (of these 395 non-mutant kinases) (Homo sapiens, UniProt Q15303); conditions: ERBB4; 10 μM
Chain of 456 kinases (of these 395 non-mutant kinases) (Homo sapiens, UniProt Q15303) (Q15303 26-1308 limits assumed, stated change not applied): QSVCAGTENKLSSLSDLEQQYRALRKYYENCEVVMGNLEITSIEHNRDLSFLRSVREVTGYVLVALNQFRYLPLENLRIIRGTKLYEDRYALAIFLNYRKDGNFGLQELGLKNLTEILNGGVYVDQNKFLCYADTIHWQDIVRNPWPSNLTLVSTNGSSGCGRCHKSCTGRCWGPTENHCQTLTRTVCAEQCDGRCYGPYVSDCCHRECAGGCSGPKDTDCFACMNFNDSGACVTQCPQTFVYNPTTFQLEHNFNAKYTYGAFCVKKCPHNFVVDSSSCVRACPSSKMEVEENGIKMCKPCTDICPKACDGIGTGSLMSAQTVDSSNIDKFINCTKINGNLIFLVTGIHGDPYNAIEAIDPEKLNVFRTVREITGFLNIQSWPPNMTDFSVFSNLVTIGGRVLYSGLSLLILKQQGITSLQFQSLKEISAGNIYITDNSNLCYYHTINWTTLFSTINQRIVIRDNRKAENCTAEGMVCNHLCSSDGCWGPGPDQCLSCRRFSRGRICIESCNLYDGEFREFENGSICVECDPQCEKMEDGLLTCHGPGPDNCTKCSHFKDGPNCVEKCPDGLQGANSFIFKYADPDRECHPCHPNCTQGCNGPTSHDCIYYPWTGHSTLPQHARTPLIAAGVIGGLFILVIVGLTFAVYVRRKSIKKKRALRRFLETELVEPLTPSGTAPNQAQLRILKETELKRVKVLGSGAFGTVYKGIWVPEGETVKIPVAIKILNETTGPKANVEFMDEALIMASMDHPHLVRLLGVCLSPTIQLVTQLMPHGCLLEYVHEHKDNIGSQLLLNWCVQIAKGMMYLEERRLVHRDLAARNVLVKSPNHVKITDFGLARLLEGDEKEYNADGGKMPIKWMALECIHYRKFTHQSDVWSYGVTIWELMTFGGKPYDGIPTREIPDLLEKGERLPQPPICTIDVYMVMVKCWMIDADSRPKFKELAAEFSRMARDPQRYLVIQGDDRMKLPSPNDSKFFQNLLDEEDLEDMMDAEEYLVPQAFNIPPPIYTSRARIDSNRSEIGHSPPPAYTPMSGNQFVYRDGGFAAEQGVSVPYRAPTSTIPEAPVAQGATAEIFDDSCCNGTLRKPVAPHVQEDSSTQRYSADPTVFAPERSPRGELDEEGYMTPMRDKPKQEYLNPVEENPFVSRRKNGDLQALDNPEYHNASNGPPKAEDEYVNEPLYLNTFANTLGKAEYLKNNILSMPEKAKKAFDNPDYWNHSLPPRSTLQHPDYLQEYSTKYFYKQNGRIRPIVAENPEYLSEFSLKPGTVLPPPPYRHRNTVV

[18] = molecular target: 456 kinases (of these 395 non-mutant kinases) (Homo sapiens, UniProt P42336, H1047L); conditions: PIK3CA(H1047L); 10 μM
[19] = molecular target: 456 kinases (of these 395 non-mutant kinases) (Homo sapiens, UniProt P36888, R834Q); conditions: FLT3(R834Q); 10 μM
[20] = molecular target: 456 kinases (of these 395 non-mutant kinases) (Homo sapiens, UniProt Q9H4B4); conditions: PLK3; 10 μM
[21] = molecular target: 456 kinases (of these 395 non-mutant kinases) (Homo sapiens, UniProt O75914); conditions: PAK3; 10 μM
[22] = molecular target: 456 kinases (of these 395 non-mutant kinases) (Homo sapiens, UniProt O14757); conditions: CHEK1; 10 μM
[23] = molecular target: 456 kinases (of these 395 non-mutant kinases) (Homo sapiens, UniProt Q99640); conditions: PKMYT1; 10 μM
[24] = molecular target: 456 kinases (of these 395 non-mutant kinases) (Homo sapiens, UniProt Q05655); conditions: PRKCD; 10 μM
[25] = molecular target: 456 kinases (of these 395 non-mutant kinases) (Homo sapiens, UniProt Q8WXR4); conditions: MYO3B; 10 μM
[26] = molecular target: 456 kinases (of these 395 non-mutant kinases) (Homo sapiens, UniProt P11309); conditions: PIM1; 10 μM
[27] = molecular target: 456 kinases (of these 395 non-mutant kinases) (Homo sapiens, UniProt P42680); conditions: TEC; 10 μM
[28] = molecular target: 456 kinases (of these 395 non-mutant kinases) (Homo sapiens, UniProt Q13043); conditions: MST1; 10 μM
[29] = molecular target: 456 kinases (of these 395 non-mutant kinases) (Homo sapiens, UniProt P41743); conditions: PRKCI; 10 μM
Chain of 456 kinases (of these 395 non-mutant kinases) (Homo sapiens, UniProt P41743) (P41743 2-596 limits assumed, change not shown): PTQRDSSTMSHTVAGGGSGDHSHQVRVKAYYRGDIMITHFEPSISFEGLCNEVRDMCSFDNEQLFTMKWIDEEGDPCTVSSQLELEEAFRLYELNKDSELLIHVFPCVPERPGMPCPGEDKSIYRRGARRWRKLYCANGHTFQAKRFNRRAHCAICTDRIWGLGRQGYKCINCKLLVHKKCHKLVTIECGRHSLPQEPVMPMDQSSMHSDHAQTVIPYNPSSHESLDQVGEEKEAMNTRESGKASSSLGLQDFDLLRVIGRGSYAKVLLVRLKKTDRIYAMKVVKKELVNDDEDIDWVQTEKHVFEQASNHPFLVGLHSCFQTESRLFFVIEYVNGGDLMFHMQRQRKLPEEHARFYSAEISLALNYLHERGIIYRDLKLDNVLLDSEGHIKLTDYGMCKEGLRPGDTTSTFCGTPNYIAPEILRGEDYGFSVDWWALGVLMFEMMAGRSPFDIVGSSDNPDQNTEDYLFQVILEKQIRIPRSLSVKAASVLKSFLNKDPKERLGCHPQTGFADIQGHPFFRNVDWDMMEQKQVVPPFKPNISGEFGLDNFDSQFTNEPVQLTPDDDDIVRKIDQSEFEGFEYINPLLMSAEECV

[30] = molecular target: 456 kinases (of these 395 non-mutant kinases) (Homo sapiens, UniProt Q13163); conditions: MEK5; 10 μM
[31] = molecular target: 456 kinases (of these 395 non-mutant kinases) (Homo sapiens, UniProt Q00526); conditions: CDK3; 10 μM
[32] = molecular target: 456 kinases (of these 395 non-mutant kinases) (Homo sapiens, UniProt Q8TD08); conditions: ERK8; 10 μM

`CCc1ccccc1NC(=O)c1c(C)nsc1Nc1cnc2cc(F)ccc2n1` [Example 20, N-(2-Ethylphenyl)-5-[(6-fluoroquinoxalin-2-yl)amino]-3-methyl-1,2-thiazole-4-carboxamide] was tested, and the “% Ctrl @ 10 μM” value [1] was 100 % Ctrl, the “% Ctrl @ 10 μM” value [2] was 85 % Ctrl and the “% Ctrl @ 10 μM” value [3] was 90 % Ctrl. The “% Ctrl @ 10 μM” value [4] was 100 % Ctrl, the “% Ctrl @ 10 μM” value [5] was 84 % Ctrl and the “% Ctrl @ 10 μM” value [6] was 89 % Ctrl. For the same compound, the “% Ctrl @ 10 μM” value [7] was 100 % Ctrl, the “% Ctrl @ 10 μM” value [8] was 100 % Ctrl and the “% Ctrl @ 10 μM” value [9] was 91 % Ctrl. The “% Ctrl @ 10 μM” value [10] was 80 % Ctrl, the “% Ctrl @ 10 μM” value [11] was 96 % Ctrl and the “% Ctrl @ 10 μM” value [12] was 100 % Ctrl. The “% Ctrl @ 10 μM” value [13] was 81 % Ctrl, the “% Ctrl @ 10 μM” value [14] was 90 % Ctrl and the “% Ctrl @ 10 μM” value [15] was 100 % Ctrl. The “% Ctrl @ 10 μM” value [16] was 100 % Ctrl, the “% Ctrl @ 10 μM” value [17] was 100 % Ctrl and the “% Ctrl @ 10 μM” value [18] was 56 % Ctrl. The “% Ctrl @ 10 μM” value [19] was 93 % Ctrl, the “% Ctrl @ 10 μM” value [20] was 92 % Ctrl and the “% Ctrl @ 10 μM” value [21] was 100 % Ctrl. For the same compound, the “% Ctrl @ 10 μM” value [22] was 73 % Ctrl, the “% Ctrl @ 10 μM” value [23] was 100 % Ctrl and the “% Ctrl @ 10 μM” value [24] was 85 % Ctrl. For the same compound, the “% Ctrl @ 10 μM” value [25] was 100 % Ctrl, the “% Ctrl @ 10 μM” value [26] was 100 % Ctrl and the “% Ctrl @ 10 μM” value [27] was 100 % Ctrl. For the same compound, the “% Ctrl @ 10 μM” value [28] was 79 % Ctrl, the “% Ctrl @ 10 μM” value [29] was 100 % Ctrl and the “% Ctrl @ 10 μM” value [30] was 100 % Ctrl. The “% Ctrl @ 10 μM” value [31] was 100 % Ctrl and the “% Ctrl @ 10 μM” value [32] was 82 % Ctrl.
